Measured values taken from US20220226348A1, “METHOD AND COMPOSITION FOR TREATMENT OF SKIN DISEASES ASSOCIATED WITH ACCELERATED CORNEODESMOSOMES DEGRADATION OR WEAKER CELL-CELL ADHESION” (ICHILOV TECH LTD, priority 2019, published 2022).

How the values were obtained:
[1] = tested on: CDSN; test: CDSN expression at the mRNA level in keratinocytes; format: cell-based
[2] = tested on: corneodesmosin; test: Corneodesmosin protein expression by immunoblotting, normalized to β-actin; format: cell-based; conditions: human primary keratinocytes, immunoblot
Text: Using a high throughput screening of small molecule libraries, utilizing green fluorescent protein (GFP) base reporter system and western blot analysis for validation of the results, it has now been found, in accordance with the present invention, that betulinic acid (which is already used as topical treatment on human skin, and capable of penetrating into the skin and be active in the epidermis while showing excellent safty profile) is capable of boosting corneodesmosin biosynthesis, and when administered to keratinocytes, it increases corneodesmosin expression by more than 3-fold (FIGS. 1-2), and may thus be used as an inducer of corneodesmosin expression in patients suffering from skin diseases or disorders associated with accelerated corneodesmosomes degradation and/or weaker cell-cell adhesion.
Corneodesmosin protein levels were quantified and normalized to β-actin protein levels and presented as corneodesmosin fold expression relative to normal keratinocytes treated with DMSO. […] The other compounds shown in the figure are 5-aminolevulinic acid hydrochloride (5-ALA; #1), piperlongumine (#2), thiostrepton (#3), obatoclax mesylate (GX15-070; #5), BI 2536 (CAS No.: 755038-02-9; #6), PHA-665752 (CAS No.: 477575-56-7 (anhydrous; #7), YH239-EE (CAS No.: 1364488-67-4; #8), PF-562271 (CAS No.: 717907-75-0; #9), and BI-D1870 (CAS No.: 501437-28-1; #10).

## C=C(C)[C@@H]1CC[C@]2(C(=O)O)CC[C@]3(C)[C@H](CC[C@@H]4[C@@]5(C)CC[C@H](O)C(C)(C)[C@@H]5CC[C@]43C)[C@@H]12 [betulinic acid]
[1]
  CDSN expression at the mRNA level relative to DMSO-treated normal keratinocytes: 2 fold
[2]
  corneodesmosin fold expression relative to normal keratinocytes treated with DMSO: more than 3 fold
